In patent publication US20050192279A1, “Pyridazinones as antagonists of alpha4 integrins” (priority 2004, published 2005):

Tested on: DSS induced colitis
Assay: Dextran Sulfate Sodium (DSS) Induced Colitis
Type: in vivo, Balb/c female mice and C57Black/6 mice
Source text: In Vivo Model for Colitis: Dextran Sulfate Sodium (DSS) Induced Colitis Inflammatory bowel diseases such as ulcerative colitis and Crohn's disease are characterized by diminished intestinal barrier function, apparent inflammatory damage that may include erosive loss of intestinal mucosa, and inflammatory infiltrates in the mucosa and submucosa. […] Among the many possible chemicals used are dextran sulfate sodium (DSS) and trinitrobenzene sulfonic acid (TNBS). The dextran sulfate sodium model of experimental colitis is characterized by a shrinkage of the colon's length, macrosopic inflammatory damage, diarrhea, a discontinuous pattern of mucosal epithelial damage in the distal colon with infiltration of inflammatory cells that include macrophages and neutrophils into the mucosa and submucosa (Blumberg, R. S., Saubermann, L. J., and Strober, W. Animal models of mucosal inflammation and their relation to human inflammatory bowel disease. Current Opinion in Immunology, 11: 648-656, 1999; […]., and Nakaya, R. A novel method of induction of reliable experimental acute and chronic colitis in mice. […] Cooper, […]., and […]. Clinicopathologic study of dextran sulfate sodium experimental murine colitis. Lab Invest., 69: 238-249, 1993; […]., Bajaj-Elliott, M., MacDonald, […]., and Buchler, M. W. Characterization of acute murine dextran sodium sulphate colitis: Cytokine profile and dose dependency. Digestion, 62: 240-248, 2000; […]., Husband, A. J., and Doe, W. F. The inflammatory infiltrate in the acute stage of the dextran sulphate sodium induced colitis: B cell response differs depending on the percentage of DSS used to induce it. BMC Clinical Pathology, 1: 3-13, 2001; and Diaz-Granados, Howe, K., Lu, J, and […]. Dextran sulfate sodium-induced colonic histopathology, but not altered epithelial ion transport, is reduced by inhibition of phosphodiesterase activity. Amer. J. Pathology, 156: 2169-2177, 2000). Balb/c female mice and […]/6 mice were used in these studies. […] When […]/6 mice were used, a solution of tap water containing 4% DSS was used. During the ensuing 7-day period, test animals were administered a preparation of an experimental compound. This material may be administered orally or intraperitoneally or subcutaneously, once or twice daily. At the end of this period, the animals were euthanized and their colons were collected for further analysis. Among the parameters analyzed were the length of the colon starting from the anus to the top of the cecum, the consistency of any stools found within the colon, and the gross macroscopic appearance of the colon. The distal colon between the 1st and the 4th centimeter was removed and placed in 10% neutral buffered formalin for later histological analysis. For the following parameters, colon length, stool consistency and appearance, and macroscopic damage a scoring system is used to describe the changes. […] Thus, […] Histological analyses of tissues consisted of staining paraffin-embedded tissue sections with hematoxylin-eosin dye. Epithelial damage scores were determined as the fraction of the tissue section showing damaged epithelium. […] Statistical analysis performed in Graphpad Prism 4.0 using ANOVA with Dunnet's or Bonferroni's multiple comparison's test.

[1] = 10 mg/kg sc bid, C57 Black/6 mice
[2] = 30 mg/kg sc bid, C57 Black/6 mice

COc1cnn(C)c(=O)c1-c1ccc(C[C@H](NC(=O)c2c(Cl)cccc2Cl)C(=O)O)cc1 [Cpd 17]
% Inhibition of Epithelial Damage Score (3 mg/kg sc bid, balb/c mice): 61.11% | % Inhibition of Total Macroscopic Score (3 mg/kg sc bid, balb/c mice): 32.95% | % Inhibition of Epithelial Damage Score [1]: 33.3% | % Inhibition of Total Macroscopic Score [1]: −7.2% | % Inhibition of Epithelial Damage Score (10 mg/kg sc bid, balb/c mice): 56.3% | % Inhibition of Total Macroscopic Score (10 mg/kg sc bid, balb/c mice): 30.6% | % Inhibition of Epithelial Damage Score [2]: 50% | % Inhibition of Total Macroscopic Score [2]: 11.2% | % Inhibition of Epithelial Damage Score (30 mg/kg sc bid, balb/c mice): 78.1% | % Inhibition of Total Macroscopic Score (30 mg/kg sc bid, balb/c mice): −32.8%
